Laboratory results from US8906885B2, “Treating cancer with HSP90 inhibitory compounds” (Synta Pharmaceuticals Corp., priority 2011, dated 2014).
pIC50: −log10 of the molar value. Where two headings read alike, the source gives them in different places.

What was measured:
ALK+ NSCLC = assay: Phase 2 NSCLC trial, patients tested for ALK translocation or rearrangement (ALK+); format: in vivo, human; details: eight ALK+ patients; monotherapy once-weekly 200 mg/m^2
Excerpt: FIG. 1 is a waterfall diagram showing the best percentage changes in size of target lesions responses according to ALK status after treatment with ganetespib. The y axis represents the percentage tumor volume change from baseline. […] A subject was considered to be ALK+ if a mutation in ALK was detected using any of the methods.
Of 23 patients in a Phase 2 trial tested for ALK translocation or rearrangement (ALK+), eight patients were ALK+ in at least one assay. […] The disease control rate in this population was ⅞ (88%), and the objective response rate (CR+PR) was 4/8 (50%).
This Phase 2 NSCLC trial was designed to enroll patients with advanced, metastatic disease (Stage IIIB and IV) who had failed prior therapy. Patients were grouped into one of three cohorts based on the genetic profile of their cancer—(A) EGFR mutation, (B) KRAS mutation, (C) neither EGFR nor KRAS mutation—and were treated with Compound 1, as a monotherapy, once-weekly at a dose of 200 mg/m^2. Based on initial encouraging signs of activity, the trial was expanded with two additional patient cohorts, including a cohort which allowed for combination treatment with ganetespib and docetaxel.

ALK = ALK degradation and effector signaling in NB-39-nu cells
[1] = tested on: NB-39-nu neuroblastoma cell line; assay: NB-39-nu neuroblastoma cell viability; details: for effect in combination with ganetespib: NB-39-nu cells
EML4-ALK positive NSCLC = assay: Case study, crizotinib refractory EML4-ALK positive NSCLC patient; format: in vivo, human; details: after three weeks of once-weekly injections; patient with resistance mutation to crizotinib
Excerpt: FIG. 2 depicts lung photographs of a person with NSCLC, who was diagnosed, and treated with pemetrexed/cisplatinum with pemetrexed maintenance for thirteen months. […] The picture on the left was taken on before commencing treatment with ganetespib. Treatment of ganetespib was initiated nine days later. The picture on the right was taken thirty-one days after the picture on the left.
The picture on the left was taken on before commencing treatment with ganetespib. Treatment of ganetespib was initiated nine days later.

[2] = tested on: crizotinib-resistant NPM-ALK/BaF3 cells; details: all crizotinib-resistant NPM-ALK/BaF3 clones
[3] = tested on: crizotinib resistant H2228 cells; assay: Viability of crizotinib resistant H2228 cells; format: cell-based
[4] = tested on: crizotinib resistant H3122 cells; assay: Viability of crizotinib resistant H3122 cells; format: cell-based
Protocol: (§1) Then, criztoinib was added to a final concentration of 1 μM. […] Viability was measured by Cell Titer Glo assay (Promega) (FIG. 5)

H3122 xenografts [5] = assay: Survival of animals bearing H3122 xenografts; format: in vivo, mouse
H3122 xenografts [6] = assay: Sequential treatment of H3122 xenografts progressing on ganetespib; format: in vivo, mouse; details: after 26 days of ganetespib
EML4-ALK [7] = biological target: T1, EML4-ALK (Homo sapiens, UniProt Q9UM73); assay: Western blot of EML4-ALK and signaling proteins in H3122 cells; format: cell-based
T1 construct: the breakpoint of ALK occurs consistently at exon 20, 5′ of the kinase domain; EML4 N-terminal portion (through exon 13); endogenous in cells; host or cells: H3122 NSCLC cells; the other entry of the earlier key: EML4 (Q9HC35, Echinoderm microtubule-associated protein-like 4)
T1 sequence (Q9UM73 with tags, fused parts or gaps): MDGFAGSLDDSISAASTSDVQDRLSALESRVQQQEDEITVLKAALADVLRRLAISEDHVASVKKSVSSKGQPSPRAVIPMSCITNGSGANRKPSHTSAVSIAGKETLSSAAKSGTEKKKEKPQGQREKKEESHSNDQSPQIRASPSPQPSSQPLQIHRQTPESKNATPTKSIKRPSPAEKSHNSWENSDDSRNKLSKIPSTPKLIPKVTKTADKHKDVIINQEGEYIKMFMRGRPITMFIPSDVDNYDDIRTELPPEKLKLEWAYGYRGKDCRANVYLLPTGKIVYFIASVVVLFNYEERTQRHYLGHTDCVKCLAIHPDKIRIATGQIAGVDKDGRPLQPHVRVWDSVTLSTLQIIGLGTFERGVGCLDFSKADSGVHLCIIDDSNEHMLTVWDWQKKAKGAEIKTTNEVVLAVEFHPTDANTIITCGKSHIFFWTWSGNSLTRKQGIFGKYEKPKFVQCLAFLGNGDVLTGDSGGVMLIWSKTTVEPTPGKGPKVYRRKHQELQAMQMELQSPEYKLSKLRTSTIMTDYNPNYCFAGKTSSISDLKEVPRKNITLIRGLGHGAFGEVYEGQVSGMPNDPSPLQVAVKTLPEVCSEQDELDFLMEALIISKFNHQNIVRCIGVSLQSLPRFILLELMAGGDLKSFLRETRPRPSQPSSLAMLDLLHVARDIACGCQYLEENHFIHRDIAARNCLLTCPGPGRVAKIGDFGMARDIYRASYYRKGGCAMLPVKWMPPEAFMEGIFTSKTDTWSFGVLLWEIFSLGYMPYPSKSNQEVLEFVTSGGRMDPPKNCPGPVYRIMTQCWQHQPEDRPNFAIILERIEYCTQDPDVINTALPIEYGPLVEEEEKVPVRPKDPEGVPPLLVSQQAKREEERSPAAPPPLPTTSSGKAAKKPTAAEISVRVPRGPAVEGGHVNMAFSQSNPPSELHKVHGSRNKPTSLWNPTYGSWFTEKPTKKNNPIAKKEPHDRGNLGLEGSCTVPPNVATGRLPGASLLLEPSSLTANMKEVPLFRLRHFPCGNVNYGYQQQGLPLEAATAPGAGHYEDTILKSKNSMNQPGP
Protocol: H3122 cells were plated in 6 well plates at a density of 300,000 cells per well. […] Equivalent amounts of protein were resolved by SDS-PAGE followed by western blot analysis of signaling proteins.

H3122 xenografts [8] = tested on: H3122 xenografts
Protocol: Tumor volume was measured twice weekly to assess the level of growth inhibition.
As for in vivo xenograft tumor models, female BALB/c, immunodeficient BALB/c nude and CB-17/Icr-Prkdcscid/Crl (SCID) mice (Charles River Laboratories, Wilmington, Mass.) at 7-12 weeks of age were maintained in a pathogen-free environment and all in vivo procedures were approved by the Synta Pharmaceuticals Corp. Statistical analyses were performed using a Kruskal-Wallace one-way ANOVA on ranks followed by the Tukey test. […]

H3122 NSCLC cells = assay: H3122 cell viability, Cell Titer Glo, 72 h; format: cell-based; details: for pIC50: Homo sapiens, NCI-H3122, read-out: cytotoxic potency
Protocol: H3122 cells were seeded in 96 well plates at a density of 7500 cells per well.
Twenty-four hours after plating, cells were dosed with graded concentrations of drug or vehicle for 72 hours. Viability was measured by the Cell Titer Glo assay (Promega).
as §1

[9] = tested on: NPM-ALK and mutant NPM-ALK; assay: Immunoblotting of NPM-ALK degradation in BaF3 cells; format: cell-based; details: wild type and 15 mutant forms
EML4-ALK [10] = assay: Pharmacodynamic analysis in H3122 xenografts (western blot)
NPM-ALK/BaF3 cells = assay: Cytotoxic IC50 by XTT assay, NPM-ALK/BaF3 cells; details: read-out: cytotoxic IC50; crizotinib-sensitive parental NPM-ALK/BaF3, 72-hr incubation
H2228 NSCLC cells = assay: H2228 cell viability; format: cell-based

SMILES: CC(C)c1cc(-c2nnc(O)n2-c2ccc3c(ccn3C)c2)c(O)cc1O [ganetespib, 3-(2,4-dihydroxy-5-isopropyl-phenyl)-4-(1-methyl-indol-5-yl)-5-hydroxy-[1,2,4] triazole]
- disease control rate (ALK+ NSCLC): 88%
- objective response rate (CR+PR) (ALK+ NSCLC): 50%
- patients showing tumor shrinkage in target lesions (ALK+ NSCLC): 75%
- degradation of ALK (ALK): dose-dependent degradation
- pIC50 ([1]; Neuroblastoma cell, read-out: viability IC50): 8.00
- tumor response on lung pictures (EML4-ALK positive NSCLC): visible and significant tumor shrinkage
- IC50 values in crizotinib-resistant clones [2]: essentially identical to that of NPM-ALK/BaF3
- activity in crizotinib resistant cells [3]: low nanomolar activity equivalent to that observed in the parental population
- activity in crizotinib resistant cells [4]: low nanomolar activity equivalent to that observed in the parental population
- animals lost on study (H3122 xenografts [5]; ganetespib 50 mg/kg 1×/wk, as of day 75): none of the animals treated with ganetespib had been lost
- response of tumors progressing (>20% increase in volume) on ganetespib to subsequent treatment (H3122 xenografts [6]): remained fairly stable
- concentration giving complete loss of phosphorylated EML4-ALK (EML4-ALK [7]): 30 nM
- T/C value (H3122 xenografts [8]; ganetespib 25 mg/kg once weekly): 41%
- T/C value (H3122 xenografts [8]; ganetespib 25 mg/kg two consecutive days each week): 10%
- T/C value (H3122 xenografts [8]; ganetespib 50 mg/kg i.v. once a week, 3 week period): 21%
- potency compared with crizotinib (H3122 NSCLC cells; H3122 NSCLC cells): significantly more potent than crizotinib
- potency relative to crizotinib (H3122 NSCLC cells; H3122 cells): ~50 times
- potency compared to other anticancer agents (crizotinib, 17-AAG, pemetrexed, BEZ-235, AZD6244) (H3122 NSCLC cells; H3122 cells, 72 hours): 2-300 ×
- pIC50 (H3122 NSCLC cells; H3122 cells): 8.49
- degradation of ALK [9]: induced the degradation of wild type and all 15 mutant forms of ALK
- duration of EML4-ALK depletion and block of oncogenic signaling pathways (EML4-ALK [10]; 100 mpk (FIG. 13 legend)): up to 4 days
- time to degradation of EML4-ALK and deactivation of ERK signaling (EML4-ALK [10]; single bolus injection 50 mg/kg): ≤ 24 h
- duration of destabilization of fusion kinase and its effectors (EML4-ALK [10]; single dose 50 mg/kg): up to 72 h
- pIC50 (NPM-ALK/BaF3 cells): 7.68
- potency compared with crizotinib (H2228 NSCLC cells): significantly more potent than crizotinib

SMILES: C[C@@H](Oc1cc(-c2cnn(C3CCNCC3)c2)cnc1N)c1c(Cl)ccc(F)c1Cl [crizotinib, reference compound]
- effect in combination with ganetespib [1]: enhanced the anticancer actions of ganetespib
- survival (day at which 50% of animals died) (H3122 xenografts [5]; crizotinib 50 mg/kg 5×/wk): 54 days
- response of tumors progressing (>20% increase in volume) on ganetespib to subsequent treatment (H3122 xenografts [6]): intermediary response
- pIC50 (H3122 NSCLC cells; H3122 cells): 6.81

SMILES: COc1cc(N2CCC(N3CCN(C)CC3)CC2)ccc1Nc1ncc(Cl)c(Nc2ccccc2S(=O)(=O)C(C)C)n1 [TAE684]
- effect in combination with ganetespib [1]: enhanced the anticancer actions of ganetespib
